The values below come from patent publication US12194021B2, “Modified herbal compositions for neuromodulation” (University of Southern California, priority 2021, dated 2025).

The test relates to TG-mice. Description: Novel context recognition (NCR). The test is classed as in vivo. The following applies: 1 mg/kg oral, 3 months, untreated TG 49.2±2.6%. The protocol:
Novel context recognition (NCR): Day 1-3 was Habituation (once/day). Two contexts (containers) A and B with similar field area were very different in shape. Context A was a rectangular, Context B was a circular container. The containers were open at the top with bedding to minimize stress and with video camera on top to record animal behavior. Each animal was placed in Context A without toys for 5 min, then back to home cage for 30 min. Then the animal was placed in Context B without toys for 5 min.
Day 4 was for Familiarization: Two different sets of toys were used as the familiar objects referred to as FO1 and FO2 respectively. […]
Day 5 (24 h from familiarization): Retention Trials was performed to determine the memory retention of each animal for familiarized objects. […] The test was videotaped and analyzed offline. The time spent exploring the familiar object (FO1) and exchanged object (FO2) were calculated where exploration equals touching the object with nose or paws or sniffing within 1.5 cm of the object. […]
Mice were divided into four groups: (1) C57BL/6 wt male mice were treated with oral administration of 2% sucrose; (2) C57B1/6 wt male mice with oral administration of 1 mg/kg D-P in 2% sucrose; (3) TG-mice with oral administration of 2% sucrose; and (4) TG-mice with 1 mg/kg D-P in 2% sucrose. […] Next, we evaluated NCR (FIG. 3C). The RI was calculated.

For the substance “piperidin-1-ium (2R,3R)-2-(3,4-dihydroxy-5-oxidophenyl)-3,5-dihydroxy-4-oxochroman-7-olate [D-P]”, the “Recognition Index (RI), novel context” value is on record as “reversed the RI in TG-mice”.
